Assay [1] has as its target T1, Serine/threonine-protein kinase B-raf (Homo sapiens, UniProt P15056).
Description: Inhibition of human cloned wild type BRAF by ELISA-based MEK phosphorylation assay
For assay [2], the target named is T1, Serine/threonine-protein kinase B-raf. Kind of assay: Inhibition of human cloned wild type BRAF at 50 uM by ELISA-based MEK phosphorylation assay. On the technique in general: An ELISA detects its analyte on a solid surface through an enzyme-linked reagent.
In assay [3] the target is Phosphatidylinositol 4,5-bisphosphate 3-kinase catalytic subunit gamma isoform (Homo sapiens, UniProt P48736). Put plainly: Inhibition of human recombinant PI3Kgamma catalytic domain.

Bounds are passed on as bounds.

By IC50 is commonly meant the concentration that inhibits the measured activity by half. Broadly, the inhibition is how much of the control response was suppressed.

T1 sequence (P15056 whole entry): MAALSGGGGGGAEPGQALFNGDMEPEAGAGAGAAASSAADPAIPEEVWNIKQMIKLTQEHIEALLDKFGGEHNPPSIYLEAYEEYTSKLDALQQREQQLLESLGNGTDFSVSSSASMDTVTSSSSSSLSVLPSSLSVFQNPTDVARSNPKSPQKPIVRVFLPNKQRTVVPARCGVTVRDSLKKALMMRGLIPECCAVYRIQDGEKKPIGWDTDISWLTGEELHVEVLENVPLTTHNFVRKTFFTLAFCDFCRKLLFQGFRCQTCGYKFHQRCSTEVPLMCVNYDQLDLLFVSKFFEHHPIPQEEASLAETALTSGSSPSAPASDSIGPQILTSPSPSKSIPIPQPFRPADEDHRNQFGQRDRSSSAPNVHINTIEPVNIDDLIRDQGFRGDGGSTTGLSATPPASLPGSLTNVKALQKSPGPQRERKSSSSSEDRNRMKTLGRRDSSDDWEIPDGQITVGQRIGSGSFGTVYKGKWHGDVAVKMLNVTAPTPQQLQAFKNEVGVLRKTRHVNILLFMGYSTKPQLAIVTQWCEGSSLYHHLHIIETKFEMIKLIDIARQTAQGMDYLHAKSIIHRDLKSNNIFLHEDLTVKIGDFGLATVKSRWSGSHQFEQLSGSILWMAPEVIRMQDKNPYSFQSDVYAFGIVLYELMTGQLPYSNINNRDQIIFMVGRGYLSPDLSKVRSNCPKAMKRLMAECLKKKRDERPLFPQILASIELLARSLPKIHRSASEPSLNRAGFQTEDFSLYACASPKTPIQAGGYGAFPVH
Chain of Phosphatidylinositol 4,5-bisphosphate 3-kinase catalytic subunit gamma isoform (P48736 whole entry, the tested form may be a part, canonical isoform): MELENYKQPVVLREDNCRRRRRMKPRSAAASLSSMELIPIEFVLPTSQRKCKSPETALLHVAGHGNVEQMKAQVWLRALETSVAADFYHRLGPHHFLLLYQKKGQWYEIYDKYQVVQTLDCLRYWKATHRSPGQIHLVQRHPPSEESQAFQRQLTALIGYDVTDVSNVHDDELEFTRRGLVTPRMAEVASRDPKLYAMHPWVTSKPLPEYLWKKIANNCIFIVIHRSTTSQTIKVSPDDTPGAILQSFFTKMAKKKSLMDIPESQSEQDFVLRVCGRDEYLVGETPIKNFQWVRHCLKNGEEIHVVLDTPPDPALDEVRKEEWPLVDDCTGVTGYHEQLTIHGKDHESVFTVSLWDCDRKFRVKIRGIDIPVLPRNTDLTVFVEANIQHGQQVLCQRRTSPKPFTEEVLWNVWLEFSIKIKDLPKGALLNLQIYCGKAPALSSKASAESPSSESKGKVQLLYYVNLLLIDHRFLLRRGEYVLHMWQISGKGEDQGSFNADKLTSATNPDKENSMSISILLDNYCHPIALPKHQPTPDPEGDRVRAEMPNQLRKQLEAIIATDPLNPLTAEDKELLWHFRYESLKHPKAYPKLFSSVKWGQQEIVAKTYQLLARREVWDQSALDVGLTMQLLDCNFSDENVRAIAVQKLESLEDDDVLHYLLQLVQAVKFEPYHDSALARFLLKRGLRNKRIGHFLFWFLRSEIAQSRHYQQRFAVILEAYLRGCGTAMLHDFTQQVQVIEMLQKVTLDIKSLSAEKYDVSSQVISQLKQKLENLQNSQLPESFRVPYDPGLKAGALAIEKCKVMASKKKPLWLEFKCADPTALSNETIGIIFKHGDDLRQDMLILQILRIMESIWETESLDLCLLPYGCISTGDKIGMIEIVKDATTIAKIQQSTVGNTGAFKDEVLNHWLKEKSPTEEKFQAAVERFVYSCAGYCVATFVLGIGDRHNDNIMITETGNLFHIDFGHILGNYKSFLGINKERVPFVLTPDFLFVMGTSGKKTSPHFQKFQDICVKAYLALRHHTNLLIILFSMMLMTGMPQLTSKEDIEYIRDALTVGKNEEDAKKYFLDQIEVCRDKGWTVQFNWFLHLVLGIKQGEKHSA

`Cn1c(=O)[nH]c(=O)c2c1nc(SCC(N)=O)n2Cc1cccc(Br)c1` registered an IC50 in assay [1] of 11.1 µM.

`C=CCn1c(N/N=C\c2cccc([N+](=O)[O-])c2)nc2c1c(=O)[nH]c(=O)n2C` came in with an IC50 in assay [1] of 37.5 µM.

`CC1Nc2nc(NC(=O)c3ccc[n+](C)c3)[nH]c(=O)c2N(C(=O)c2ccc[n+](C)c2)C1C` (stereo not drawn) gave an IC50 in assay [1] of 29.4 µM.

Compound `COc1cccc(C2CC(C(F)(F)F)n3ncc(C(=O)Nc4ccc(OC)cc4OC)c3N2)c1` (stereo not drawn) had an IC50 in assay [1] above 100 µM.

In assay [1], `CC(=O)c1c(C)nn2c3ccccc3n(CCN3CCOCC3)c12` returned an IC50 above 100 µM.

The compound `COc1ccc(OC)c(C(O)c2coc3ccc(O)c(CN4CCOCC4)c23)c1` (stereo not drawn) showed an IC50 in assay [1] above 100 µM.

The compound `Cc1cc(C)n(-c2nc3c(c(=O)n(C)c(=O)n3C)n2Cc2ccccc2)n1` yielded an IC50 in assay [1] of 57.7 µM.

`COc1ccccc1N1C(=O)CC(N2CCC(C(N)=O)CC2)C1=O` (stereo not drawn) displayed an IC50 in assay [1] above 100 µM.

In assay [1], `C/C(=N/Nc1nc2c(c(=O)[nH]c(=O)n2C)n1Cc1ccccc1)c1ccccc1` had an IC50 of 11.4 µM.

In turn, `Cc1cccc(C)c1NC(=O)CSc1nnc(CN2CCOCC2)n1C` displayed an IC50 in assay [1] above 100 µM.

For `COc1cc(/C=N/NC(=O)CN2CCN(c3ccc(F)cc3)CC2)ccc1O`, the IC50 in assay [1] was above 100 µM.

Take `COc1cccc(N2C(=O)CC(N3CCN(Cc4ccccc4)CC3)C2=O)c1` (stereo not drawn): the IC50 in assay [1] was above 100 µM.

In assay [1], `CN1CCN(CC(=O)N2N=C(c3cccs3)CC2c2ccco2)CC1` (stereo not drawn) showed an IC50 above 100 µM.

As to `Cc1ccc(C2CC(c3ccccc3)=NN2C(=O)CN2CCOCC2)o1` (stereo not drawn), in assay [1], the IC50 was above 100 µM.

For `O=C(NC(C(=O)c1ccccc1)N1CCOCC1)c1cccs1` (stereo not drawn), the IC50 in assay [1] was above 100 µM.

`C/C(Cl)=C\CSc1nc2c(c(=O)n(Cc3ccccc3)c(=O)n2C)n1Cc1ccccc1`: in assay [1], it took 10.9 µM to reach half-maximal inhibition (IC50).

Compound `Cn1c(=O)[nH]c(=O)c2c1nc(S)n2Cc1ccc(Cl)cc1` showed an inhibition in assay [2] of 90%.

Consider `COc1cc(C2C(C#N)=C(N)OC3=C2C(=O)CCC3)ccc1Cn1nc(C)c([N+](=O)[O-])c1C` (stereo not drawn), for which the IC50 in assay [1] was above 100 µM.

In turn, `C/C(=N/Nc1nc2c(c(=O)[nH]c(=O)n2C)n1Cc1ccccc1)c1ccc([N+](=O)[O-])cc1` returned an IC50 in assay [1] of 4.6 µM.

`Cn1c(=O)[nH]c(=O)c2c1nc(N/N=C\c1ccc([N+](=O)[O-])cc1)n2Cc1ccccc1`: the IC50 in assay [1] was 57.9 µM.

For the compound `C/C(Cl)=C/Cn1c(N/N=C(/C)c2ccc([N+](=O)[O-])cc2)nc2c1c(=O)[nH]c(=O)n2C`, in assay [1], half-maximal inhibition (IC50) required 17.4 µM.

In assay [1], `C/C(Cl)=C\CSc1nc2c(c(=O)[nH]c(=O)n2C)n1CC(O)CCc1ccccc1` (stereo not drawn) returned an IC50 of 3.75 µM.

In the case of `CN1CCN(Cc2c3c(c(CN4CCN(C)CC4)c4c2CCC4)CCC3)CC1`, the IC50 in assay [1] is above 100 µM.

Consider `Cn1c(=O)n(Cc2ccccc2)c(=O)c2c1nc(SCCO)n2Cc1ccccc1`, for which the IC50 in assay [3] stood at 25 µM; in assay [1], 1.72 µM.

`Cc1cc(C2C(C(=O)c3ccc4c(c3)OCCO4)=C(O)C(=O)N2CCCn2ccnc2)co1` (stereo not drawn) displayed an IC50 in assay [1] above 100 µM.

In the case of `COc1ccc(CN2CCCN(Cc3ccc(OC)cc3)C2c2cccc(C)n2)cc1`, the IC50 in assay [1] was above 100 µM.

In turn, `Cn1c(=O)[nH]c(=O)c2c1nc(N/N=C\c1cccc([N+](=O)[O-])c1)n2Cc1ccccc1` showed an IC50 in assay [1] above 50 µM.

Compound `CCN(CC)Cc1c(C(=O)N/N=C/c2ccco2)nnn1-c1nonc1N` had an IC50 in assay [1] above 100 µM.

The compound `CCN1CCN(Cc2nc3cc(Cl)ccc3n2Cc2ccccc2)CC1` came in with an IC50 in assay [1] above 100 µM.

In the case of `CSc1nc2c(c(=O)[nH]c(=O)n2C)n1Cc1ccccc1`, in assay [1], half-maximal inhibition (IC50) required 30.1 µM.

With `Cn1c(=O)[nH]c(=O)c2c1[nH]c(=S)n2Cc1ccc(Cl)cc1`, the IC50 in assay [1] turned out to be 2.1 µM.

The compound `O=C(Cn1c2ccccc2n2ncnc12)c1cccs1` had a half-inhibitory concentration (IC50) in assay [1] above 100 µM.

(Values after ChEMBL document CHEMBL1140099, “Identification of BRAF inhibitors through in silico screening” (J Med Chem, 2008).)
